Measurements as given in patent publication US8497382B2, “Carboxylic acid derivative containing thiazole ring and pharmaceutical use thereof” (Mitsubishi Tanabe Pharma Corporation, priority 2008, dated 2013).
pEC50: −log10 of the molar value.

Tests used:
[1] = biological target: T1, Human Peroxisome Proliferator-Activated Receptor (PPAR)α (Homo sapiens, UniProt Q07869); assay: Transactivation test for human PPARα (GAL4-hPPARαLBD luciferase reporter in CV-1 cells); assay type: cell-based; details: for pEC50: CV-1 cells, GAL4-hPPARαLBD, luciferase activity after 24 hr, read-out: transactivation action (EC50, nmol/l)
T1 construct: expressed in transfected cells
T1 sequence (Q07869 239-466 limits assumed): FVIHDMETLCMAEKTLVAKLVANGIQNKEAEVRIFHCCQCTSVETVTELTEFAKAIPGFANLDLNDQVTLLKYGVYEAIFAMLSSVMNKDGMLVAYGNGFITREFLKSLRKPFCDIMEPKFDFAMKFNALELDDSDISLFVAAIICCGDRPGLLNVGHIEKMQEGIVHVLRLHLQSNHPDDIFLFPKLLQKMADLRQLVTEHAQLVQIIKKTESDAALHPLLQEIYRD
Source text: Transactivation Test for Human Peroxisome Proliferator-Activated Receptor (PPAR)α
CV-1 cells (CCL-70, manufactured by Dainippon Pharma Co., Ltd.) cultured in Dulbecco's Modified Eagle Medium (DMEM) containing 10% fetal bovine serum (FBS) were transfected, using Lipofectamine 2000 (manufactured by Invitrogen), with pBIND vector (manufactured by Promega) that expresses a fusion protein of a DNA binding region of a yeast transcription factor (GAL4) and a human PPARα ligand binding region (GAL4-hPPARαLBD, manufactured based on Diabetes 47: 1841-1847, 1998), and an internal standard renilla luciferase, and GAL4 responsive TK vector that expresses reporter firefly luciferase (manufactured by Promega). 24 hr later, the medium was changed to a serum free medium containing a test compound, and the luciferase activity after 24 hr was measured.

CYP2C8 = biological target: T2, CYP2C8 (Homo sapiens, UniProt P10632); assay: Metabolizing isoform identification test, microsome expressing CYP2C8; assay type: in vitro ADME; details: microsome expressing CYP at 50 pmol CYP/mL, 2 μmol/L, 37° C., 20 min
T2 sequence (P10632 1-490): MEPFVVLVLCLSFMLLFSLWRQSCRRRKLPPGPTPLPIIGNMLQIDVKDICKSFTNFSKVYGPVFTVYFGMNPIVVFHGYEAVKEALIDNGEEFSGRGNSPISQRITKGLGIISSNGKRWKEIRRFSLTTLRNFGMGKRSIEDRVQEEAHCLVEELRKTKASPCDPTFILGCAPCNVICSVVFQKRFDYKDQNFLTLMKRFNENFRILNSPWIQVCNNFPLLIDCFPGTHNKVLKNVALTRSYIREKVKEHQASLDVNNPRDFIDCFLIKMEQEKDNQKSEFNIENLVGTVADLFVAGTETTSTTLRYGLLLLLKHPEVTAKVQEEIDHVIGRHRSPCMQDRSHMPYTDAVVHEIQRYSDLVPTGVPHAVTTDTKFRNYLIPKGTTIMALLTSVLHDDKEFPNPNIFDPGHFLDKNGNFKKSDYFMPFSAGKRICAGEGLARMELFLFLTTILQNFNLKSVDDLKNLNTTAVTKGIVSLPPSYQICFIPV
Method: (§1) Metabolizing Isoform Identification Test (Oxidative Metabolism by Microsome)
(§2) As a reaction mixture for the CYP isoform identification, a reaction mixture containing microsome [^14C-labeled test compound (2 μmol/L), microsome (human liver microsome at 0.5 mg protein/mL or microsome expressing CYP at 50 pmol CYP/mL (Control microsome, CYP1A2, CYP2A6, CYP2B6, CYP2C8, CYP2C9, CYP2C19, CYP2D6, CYP2E1 or CYP3A4)), EDTA (0.05 mmol/L) and Na—K phosphate buffer (pH 7.4, 0.1 mol/L)] was prepared and, after preincubation at 37° C. for 5 min, a solution of the NADPH generating system [β-NADP+ (0.5 mmol/L), glucose-6-phosphate (G-6-P) (5.0 mmol/L), magnesium chloride (5.0 mmol/L) and G-6-P DH (1.0 unit/mL)] was added to start the reaction. For CYP expressing microsomes for CYP2A6 and CYP2C9, Tris-HCl buffer (pH 7.4, 0.1 mol/L) was used instead of Na—K phosphate buffer (pH 7.4, 0.1 mol/L).
(§3) These reaction mixtures were incubated at 37° C. for 20 min, and a 3-fold amount of ethanol was added to the reaction mixtures to terminate the reaction. To the reaction mixture was added a predetermined amount of an unlabeled metabolite mixed solution, and the mixture was stirred (about 5 min), centrifuged (4° C., 3000 rpm, 10 min) and the supernatant was collected. […] From the obtained radiochromatogram, the metabolism activity and metabolite generating activity of the ^14C-labeled test compound was calculated.

normal rats = assay: Blood triglyceride (TG)-lowering action in normal rats; assay type: in vivo; details: normal male SD rats; for TG-lowering action: 0.01 mg/kg; for TG lowering rate: p.o., once a day for 4 days, non-fasting
Method: 1) Blood Triglyceride (TG)-Lowering Action in Normal Rats
7 to 9-week-old male SD rats (manufactured by SEAC Yoshitomi, Ltd.) were used for the test. A test compound and a control compound (GW-9578: J. Med. Chem. 1999, 42, 3785-3788) were dissolved or suspended in 1% ethanol, 0.05% Tween80 (final concentration), and 0.5% hydroxypropylmethyl cellulose (HPMC) was added to adjust to a given concentration. The prepared solution was orally administered once a day for 4 days. After administration for 4 days, blood samples were collected from the jugular vein under non-fasting condition and blood TG was measured by an enzyme method. The lowering rate was calculated by determining the rate of a value obtained by subtracting the average blood TG of a drug administration group from the average blood TG of a vehicle administration group, to the average blood TG of the vehicle administration group.

CYP2C9 [2] = biological target: T3, CYP2C9 (Homo sapiens, UniProt P11712); assay: Investigation using an inhibitor (Sulfaphenazole) in human liver microsome; assay type: in vitro ADME; set-up: human liver microsome (0.5 mg protein/mL); from tissue; host or cells: human liver microsome; details: Sulfaphenazole 10 μmol/L, test compound 0.2 and 2 μmol/L
T3 sequence (P11712 whole entry): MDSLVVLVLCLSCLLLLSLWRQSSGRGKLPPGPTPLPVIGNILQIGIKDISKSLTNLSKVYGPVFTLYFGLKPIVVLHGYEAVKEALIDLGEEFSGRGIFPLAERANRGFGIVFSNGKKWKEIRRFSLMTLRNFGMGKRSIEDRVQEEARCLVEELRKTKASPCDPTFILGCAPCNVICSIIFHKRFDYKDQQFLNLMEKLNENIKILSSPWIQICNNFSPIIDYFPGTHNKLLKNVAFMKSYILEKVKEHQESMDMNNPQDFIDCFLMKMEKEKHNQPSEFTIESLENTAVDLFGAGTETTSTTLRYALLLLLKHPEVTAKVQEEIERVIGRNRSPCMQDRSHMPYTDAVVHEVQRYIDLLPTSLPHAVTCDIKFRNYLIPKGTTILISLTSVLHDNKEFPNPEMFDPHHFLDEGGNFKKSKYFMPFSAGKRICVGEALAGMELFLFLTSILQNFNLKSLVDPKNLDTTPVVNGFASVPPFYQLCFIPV
Method: On the other hand, as a reaction mixture for studying inhibitors, [^14C-labeled test compound (0.2 μmol/L and 2 μmol/L), inhibitor solution (Sulfaphenazole) (10 μmol/L), human liver microsome (0.5 mg protein/mL), EDTA (0.05 mmol/L) and Na—K phosphate buffer (pH 7.4, 0.1 mol/L)] was prepared and, after preincubation at 37° C. for 5 min, a solution of the NADPH generating system was added thereto to start the reaction.
as §3, with “collected. To the residue was added a 3-fold amount of ethanol relative to the reaction mixture, and the mixture was stirred (about 5 min), and centrifuged (4° C., 3000 rpm, 10 min). The supernatant was collected and combined with the supernatant collected earlier, and the solvent was evaporated under a nitrogen stream at about 40° C.” for “collected.”

[3] = Metabolizing isoform identification test (oxidative metabolism by microsome), human liver microsome; assay type: in vitro ADME; details: for oxidative metabolism by human liver microsome: 14C-labeled test compound 2 μmol/L, 0.5 mg protein/mL, 37° C., 20 min
Method: as §1, §2
These reaction mixtures were incubated at 37° C. for 20 min, and a 3-fold amount of ethanol was added to the reaction mixtures to terminate the reaction. To the reaction mixture was added a predetermined amount of an unlabeled metabolite mixed solution, and the mixture was stirred (about 5 min), centrifuged (4° C., 3000 rpm, 10 min) and the supernatant was collected. To the residue was added a 3-fold amount of ethanol relative to the reaction mixture, and the mixture was stirred (about 5 min), and centrifuged (4° C., 3000 rpm, 10 min). The supernatant was collected and combined with the supernatant collected earlier, and the solvent was evaporated under a nitrogen stream at about 40° C. To the residue was added a predetermined amount of HPLC mobile phase or suitable solvent, and the mixture was stirred and used as an HPLC sample. The sample was injected into HPLC and a radiochromatogram was obtained. From the obtained radiochromatogram, the metabolism activity and metabolite generating activity of the ^14C-labeled test compound was calculated.

CYP2C19 = CYP2C19 (Homo sapiens, UniProt P33261); assay: Metabolizing isoform identification test, microsome expressing CYP2C19; assay type: in vitro ADME; details: microsome expressing CYP at 50 pmol CYP/mL, 2 μmol/L, 37° C., 20 min
Sequence of CYP2C19 (P33261 whole entry, canonical isoform): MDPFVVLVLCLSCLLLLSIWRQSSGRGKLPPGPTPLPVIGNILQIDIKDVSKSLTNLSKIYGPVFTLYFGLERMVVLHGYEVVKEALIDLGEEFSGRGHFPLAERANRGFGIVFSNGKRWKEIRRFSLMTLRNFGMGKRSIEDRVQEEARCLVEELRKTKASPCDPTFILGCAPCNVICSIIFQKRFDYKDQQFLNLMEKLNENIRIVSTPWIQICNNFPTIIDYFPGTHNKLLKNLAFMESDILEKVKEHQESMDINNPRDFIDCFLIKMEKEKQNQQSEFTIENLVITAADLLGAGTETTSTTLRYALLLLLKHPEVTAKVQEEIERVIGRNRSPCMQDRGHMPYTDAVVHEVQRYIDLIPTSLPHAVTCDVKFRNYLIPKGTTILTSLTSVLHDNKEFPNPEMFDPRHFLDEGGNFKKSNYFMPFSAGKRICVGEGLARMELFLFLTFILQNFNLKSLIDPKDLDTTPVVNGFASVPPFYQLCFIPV
Method: as §1, §2, §3

CYP3A4 = CYP3A4 (Homo sapiens, UniProt P08684); assay: Metabolizing isoform identification test, microsome expressing CYP3A4; assay type: in vitro ADME; details: microsome expressing CYP at 50 pmol CYP/mL, 2 μmol/L, 37° C., 20 min
Sequence of CYP3A4 (P08684 whole entry, canonical isoform): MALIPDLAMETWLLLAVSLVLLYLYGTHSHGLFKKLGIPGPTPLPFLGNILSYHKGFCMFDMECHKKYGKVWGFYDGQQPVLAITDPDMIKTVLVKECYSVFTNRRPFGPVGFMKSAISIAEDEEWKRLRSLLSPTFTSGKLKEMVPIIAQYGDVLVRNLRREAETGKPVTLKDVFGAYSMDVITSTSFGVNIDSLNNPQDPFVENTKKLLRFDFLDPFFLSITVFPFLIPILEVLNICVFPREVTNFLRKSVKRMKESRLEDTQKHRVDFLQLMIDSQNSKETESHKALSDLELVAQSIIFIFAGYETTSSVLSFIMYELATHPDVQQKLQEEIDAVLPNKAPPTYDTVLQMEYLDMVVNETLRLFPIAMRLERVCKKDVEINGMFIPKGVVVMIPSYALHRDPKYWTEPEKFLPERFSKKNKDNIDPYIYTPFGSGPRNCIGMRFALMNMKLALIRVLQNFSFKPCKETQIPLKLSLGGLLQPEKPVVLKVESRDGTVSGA
Method: as §1, §2, §3

CYP2C9 [4] = biological target: T3, CYP2C9; assay: Metabolizing isoform identification test, microsome expressing CYP2C9; assay type: in vitro ADME; details: microsome expressing CYP at 50 pmol CYP/mL, 2 μmol/L, 37° C., 20 min
Method: as §1, §2, §3

[5] = tested on: high cholesterol diet-treated rat; assay: Influence on serum lipid of high cholesterol diet-treated rat; assay type: in vivo, SD rats; details: once a day for 5 days, high cholesterol diet rats
Method: 2) Influence on Serum Lipid of High Cholesterol Diet-Treated Rat
8-week-old male SD rats (manufactured by SEAC Yoshitomi, Ltd.) were raised on a standard diet CE-2 (manufactured by Japan Clea, Inc.) added with 1% cholesterol, 2% olive oil and 0.2% cholic acid, from one week before test compound administration to the last day of the administration. A test compound and a control compound (GW-9578) were dissolved or suspended in 1% ethanol and 0.05% Tween80 (final concentration), and 0.5% hydroxypropylmethyl cellulose (HPMC) was added to adjust to a given concentration. The prepared solution was orally administered once a day for 5 days. After administration for 5 days, blood samples were collected from the jugular vein under non-fasting condition and blood lipid was measured by an enzyme method. The lowering rate was calculated by determining the rate of a value obtained by subtracting the average blood TG (or average blood TC) of a drug administration group from the average blood triglyceride (TG) (or average blood total cholesterol (TC)) of a vehicle administration group, to the average blood TG (or average blood TC) of the vehicle administration group.

| SMILES | pEC50 [1] | TG-lowering action (normal rats) | oxidative metabolism by human liver microsome [3] | TG lowering rate (normal rats; 0.3 mg/kg) | TG lowering rate (%, 0.3 mg/kg, p.o.) TG ([5]; first column) | TG lowering rate (%, 0.3 mg/kg, p.o.) TG ([5]; second column) | other results |
| --- | --- | --- | --- | --- | --- | --- | --- |
| CC(C)(Sc1nc(C(=O)COc2ccc(-c3ccc(F)cc3)cc2)cs1)C(=O)O [Example 3, 2-[(4-{[(4′-fluorobiphenyl-4-yl)oxy]acetyl}-1,3-thiazol-2-yl)thio]-2-methylpropionic acid] | 8.33 | – | – | – | – | – | – |
| CC(C)(Sc1nc(CCOc2ccc(-c3ccc(F)cc3)cc2)cs1)C(=O)O [compound A, 2-[(4-{2-[(4′-fluorobiphenyl-4-yl)oxy]ethyl}-1,3-thiazol-2-yl)thio]-2-methylpropionic acid] | 7.98 | 0.7% | observed | – | – | – | metabolism by CYP2C8 (CYP2C8): also metabolized; enzyme mainly involved in the metabolism (investigation using the inhibitor) (CYP2C9 [2]): CYP2C9; metabolism by CYP2C19 (CYP2C19): also metabolized; metabolism by CYP3A4 (CYP3A4): also metabolized; metabolism by CYP2C9 (CYP2C9 [4]): mainly metabolized by CYP2C9 |
| CC(C)(Sc1nc(C(O)COc2ccc(-c3ccc(F)cc3)cc2)cs1)C(=O)O (stereo not shown) [Example 2, 2-[(4-{2-[(4′-fluorobiphenyl-4-yl)oxy]-1-hydroxyethyl}-1,3-thiazol-2-yl)thio]-2-methylpropionic acid] | 8.08 | – | – | 56% | 38% | 34% | – |
| CCCCCCCN(CCc1ccc(SC(C)(C)C(=O)O)cc1)C(=O)Nc1ccc(F)cc1F [GW-9578] | – | – | – | 50-60% | 30-50% | 30-50% | – |
| CC(C)(Sc1nc([C@H](O)COc2ccc(-c3ccc(F)cc3)cc2)cs1)C(=O)O [Example 12, 2-[(4-{(1S)-2-[(4′-fluorobiphenyl-4-yl)oxy]-1-hydroxyethyl}-1,3-thiazol-2-yl)thio]-2-methylpropionic acid] | 8.51 | 15.1% | could not be confirmed | – | – | – | TG lowering rate (normal rats; 0.1 mg/kg): 52%; involvement in the metabolism by CYP ([3]; summary statement in description): not involved in the metabolism by CYP; transcription activation activity relative to compound A (times stronger) ([1]; compared with compound A (10.41 nmol/l)): ≥ 3 times |
